# Laboratory results as given in US20060148763A1, “Compounds and methods for regulating triglyceride levels” (priority 2005, published 2006).
# Values joined by “and” are separate entries in the source; they are usually repeats but may differ in a detail not shown here. Equal entries are not always repeated.
# How the values were obtained:
# serum triglyceride (TG) = experiment: Phase II cross-over study of P5P alone and with lisinopril in hypertensive type 2 diabetic patients: triglycerides; format: in vivo, human; conditions: for TG change, 16 wk vs. baseline (b): Lisinopril/P5P therapy, patients with TG ≧1.7 mmol/L; for reduction in serum TG levels vs. baseline: patients with elevated TG (>1.7 mmol/L) at baseline
# Description: Objective—A phase II clinical study was conducted to determine the effects of pyridoxal-5′-phosphate in combination with lisinopril on blood pressure and metabolic function in hypertensive patients with type 2 diabetes.
# Summary of Study Design—The phase II study was a randomized, parallel group, cross-over, double-blinded to study medication, placebo-controlled comparison of P5P BID at total daily doses of 100, 300, or 1000 mg alone and in combination with 20 mg lisinopril given once daily (QD). In order to protect against antihypertensive and metabolic carry-over effects of lisinopril, all patients were randomized in 2 different treatment sequences. Patients randomized in the first treatment sequence receive an 8-week treatment with lisinopril 20 mg and P5P (or placebo) and then an 8-week treatment with P5P alone (or placebo). Patients randomized in the second treatment sequence receive an 8-week treatment with P5P alone and then an 8-week treatment with lisinopril 20 mg and P5P (or placebo). In each treatment sequence, all patients were randomized to P5P at the different prespecified dosages.
# Mean trough sitting and standing BP were measured at each visit. Twenty-four hour ambulatory BP monitoring (ABPM) were performed at Visit 2 prior to randomization (end of washout period) and after week 8 (Visit 5) and week 16 (Visit 8) weeks of active therapy. Laboratory tests were performed at screening (Visit 1), prior to randomization (Visit 2), at week 2 (Visit 3a), week 8 (Visit 5), week 10 (Visit 6a), and at week 16 (Visit 8).
# Treatment Plan—Two to Four-week Washout (Baseline) Period. Patients were instructed on the proper procedure for discontinuing their current antihypertensive medications (discontinuation or tapering) according to the manufacturer's label specifications. If a patient's current antihypertensive treatment needed to be tapered earlier, the Investigator complied with the corresponding timelines before randomization. With the exception of any tapering off of prior therapy, if any, no other anti-hypertensive medication was given to the patient during the washout period. Patients continued any existing diabetic treatment with sulfonylureas (tolbutamide, tolazamide, acetohexamide, chlorpropamide and second generation glyburide, glipizide, glimepiride), D-Phenylalanine derivatives, metformin, thiazolidinediones, acarbose, miglitol, and/or insulin throughout the study. Patients received placebo to be taken twice daily during the washout period. Standard diabetic medication was maintained throughout study. The duration of the washout period was two to four weeks, at the discretion of the Investigator taking into consideration whether the patient's blood pressure had stabilized following removal of any prior antihypertensive medication. […]
# [1] = system: serum triglyceride levels; experiment: 14-week open-label forced dose-escalation study of P5P in hypertensive diabetic patients: triglyceride level; format: in vivo, human; conditions: for Triglycerides, Percentage Difference: average Visit 12 vs Visit 1
# Description: Overview—The study was a 14-week, open-label, forced, dose-escalation study of the efficacy and safety of P5P administered once daily over a dose range of 250 mg to 750 mg, for the treatment of mild to moderate hypertension and hyperlipidemia, in patients with coexisting diabetes mellitus.
# Patient Definition—Patients meeting all of the inclusion criteria and none of the exclusion criteria were eligible for enrollment. The primary inclusion criteria were hypertension and diabetes. […] Other than having diabetes and hypertension, patients must have been in good health for their age. A history and physical examination must have been within age-related normal limits, or if abnormal, considered clinically insignificant in the opinion of the investigator. Laboratory tests (CBC with differential, prothrombin and partial thrombo-plastin times, platelet count, and urinalysis and blood chemistry panel), must have been normal, or if abnormal, considered clinically insignificant.
# Exclusion criteria included the presence or history (past 12 months) of accelerated or malignant hypertension, as evidenced by hemorrhage and/or exudate, and/or papilloedema on funduscopic examination. Patients having a history of angioedema of the face, lips, tongue, glottis or larynx when treated with ACE inhibitors were excluded. Patients having a diastolic BP>114 mm Hg, and/or systolic BP>200 mm Hg at screening were excluded. Patients with similar readings at the end of the placebo lead-in period were dropped from further participation in the study. During the placebo lead-in period patients who had signs of bradycardia (<45 bpm) or a resting heart rate of >100 bpm were not advanced to the next stage of the study, but rather dropped from further participation.
# Exclusion criteria included the presence or history (past 6 months) of myocardial infarction or cerebrovascular accident and clinically significant cardiac pathology such as congestive heart failure, cardio-genic shock, non-controlled arrhythmias, acute myocarditis or pericarditus, significant valvular or congestive heart disease and unstable angina pectoris; presence or evidence of atrioventricular block (second/third degree), or sick sinus syndrome, or any other conduction defect or abnormality including the presence/history of atrial fibrillation or flutter, associated with pre-excitation syndrome; clinically significant gastrointestinal disease, renal insufficiency (serum creatinine […]), hepatic disease, or electrolyte imbalance (serum potassium <3.5 or >5.3 mmol/L, serum sodium <136->145 mmol/L); presence of bronchial asthma or chronic obstructive pulmonary disease; or the presence of any clinically significant concomitant disease that in the opinion of the investigator could interfere with the patient's participation in the study, or confound the outcome variables. Patients having any clinically significant concomitant disease that could interfere with the patient's participation in the study, or confound the outcome variables were excluded. Patients with a history of alcohol abuse or illicit drug use in the 12 months prior to beginning this protocol were excluded. Patients with a terminal illness were excluded. Patients with an arm circumference >41 cm were excluded. Pregnant females, women who were breast-feeding or women of child-bearing potential must have used adequate contraception. Patients who have had therapy with an investigational compound within 30 days prior to entry into the study were excluded. The use of the following medications was cause for exclusion, each had to have been safely discontinued prior to the placebo lead-in phase of the study, and must been withheld until the protocol had been completed: all diuretics and antihypertensive drugs (including beta-blockers, calcium-channel blockers, vasodilators, ACE inhibitors), MAO inhibitors, all anti-arrhythmic drugs, digitalis, major tranquilizers, antidepressants, cimetidine, corticosteroids, and antineoplastics. […]
compound,measurement,setting,value
"Cc1ncc(COP(=O)(O)O)c(C=O)c1O [P5P, pyridoxal-5′-phosphate]","TG change, 16 wk vs. baseline (b)",serum triglyceride (TG); P5P 300 mg daily (BID),−0.70 mmol/L (p = 0.04)b
same,reduction in serum TG levels vs. baseline,serum triglyceride (TG); P5P 300 mg,about 0.70 mmol/L
same,"TG change, 16 wk vs. baseline (b)",serum triglyceride (TG); P5P 1000 mg daily (BID),−0.56 mmol/L (p = 0.12)b
same,reduction in serum TG levels vs. baseline,serum triglyceride (TG); P5P 1000 mg,about 0.56 mmol/L
same,"Triglycerides, Percentage Difference",[1]; Table 2,−22.1%
same,"Triglycerides, Visit 1, Average","[1]; Table 2, average of 11 patients, screening, before treatment",246.1 mg/dL
same,"Triglycerides, Visit 12, Average","[1]; Table 2, average of 11 patients, week 14",191.5 mg/dL
same,"Triglycerides, Percentage Difference","[1]; Table 3, elevated triglycerides (>150 mg/dL)",−25.7%
same,"Triglycerides, Visit 1, Average","[1]; Table 3, elevated triglycerides (>150 mg/dL), average of 7 patients, screening",326.9 mg/dL
same,"Triglycerides, Visit 12, Average","[1]; Table 3, elevated triglycerides (>150 mg/dL), average of 7 patients, week 14",242.9 mg/dL
same,"Triglycerides, Visit 1","[1]; Table 3, patients with elevated triglycerides (>150 mg/dL), individual patients, screening, before treatment",150 mg/dL and 601 mg/dL and 188 mg/dL and 180 mg/dL and 530 mg/dL and 442 mg/dL and 197 mg/dL
same,"Triglycerides, Visit 12","[1]; Table 3, patients with elevated triglycerides (>150 mg/dL), individual patients, week 14",166 mg/dL and 268 mg/dL and 160 mg/dL and 305 mg/dL and 286 mg/dL and 302 mg/dL and 213 mg/dL
same,reduced triglyceride levels by (average),"[1]; hypertensive diabetic patients, end of 14 week study",approximately 22.1%
same,reduced triglyceride levels by (average),[1]; patients having elevated triglyceride levels (>150 mg/dL) prior to the study,approximately 25.7%
